Drawing on the OligoGym collection, this text covers normalised inhibition (eCFP-eYFP dual reporter) for 35 substances.

Oligonucleotides are written 5' to 3', each unit as a sugar letter and its base; * is a phosphorothioate linkage, no mark a phosphodiester; rarer units and linkages stand in square brackets, end groups in braces. Plain capitals give the bases only. d = 2'-deoxy (DNA); r = 2'-OH (RNA)

One series concerns the target P2RX3. As to the kind of experiment: reporter assay of Huesken 2005. The settings on record: siRNA. For orientation: In a reporter assay the amount or activity of a reporter protein is the signal.
The target in another series is DENND5A. As to the kind of experiment: reporter assay of Huesken 2005. The settings on record: siRNA.
Note: test concentration or dose not given here.

In the series with P2RX3, “sense rArCrArGrCrCrArGrGrGrArCrArUrGrArArGrAdTdT / antisense rUrCrUrUrCrArUrGrUrCrCrCrUrGrGrCrUrGrUdCdA” gave a normalised inhibition (eCFP-eYFP dual reporter) of 78.1%.

“sense rGrGrUrArCrGrGrGrArCrArCrArGrCrCrArUrUdTdT / antisense rArArUrGrGrCrUrGrUrGrUrCrCrCrGrUrArCrCdTdG”: the normalised inhibition (eCFP-eYFP dual reporter) with P2RX3 turned out to be 61.2%.

As to “sense rArCrGrCrCrArArCrArGrArGrUrCrArUrGrGrAdTdT / antisense rUrCrCrArUrGrArCrUrCrUrGrUrUrGrGrCrGrUdAdG”, in the series with P2RX3, the normalised inhibition (eCFP-eYFP dual reporter) was 89.2%.

In the case of “sense rCrUrGrGrArCrCrArUrCrGrGrGrArUrCrArUrCdTdT / antisense rGrArUrGrArUrCrCrCrGrArUrGrGrUrCrCrArGdCdT”, the normalised inhibition (eCFP-eYFP dual reporter) in the series with P2RX3 amounted to 60.7%.

As to “sense rArArGrArCrCrUrGrCrCrGrCrUrUrCrCrArCrCdTdT / antisense rGrGrUrGrGrArArGrCrGrGrCrArGrGrUrCrUrUdCdA”, the normalised inhibition (eCFP-eYFP dual reporter) with P2RX3 was determined as 39.9%.

“sense rUrCrUrUrGrCrGrGrGrUrArGrGrGrGrArCrGrUdTdT / antisense rArCrGrUrCrCrCrCrUrArCrCrCrGrCrArArGrAdTdG” showed a normalised inhibition (eCFP-eYFP dual reporter) with P2RX3 of 75.9%.

As for “sense rGrCrGrGrGrGrCrArGrGrArUrUrUrUrGrCrCrAdTdT / antisense rUrGrGrCrArArArArUrCrCrUrGrCrCrCrCrGrCdAdA”, the normalised inhibition (eCFP-eYFP dual reporter) with P2RX3 is 67.8%.

In the case of “sense rGrGrUrGrArArUrGrArGrArCrUrArCrGrCrUrGdTdT / antisense rCrArGrCrGrUrArGrUrCrUrCrArUrUrCrArCrCdTdC”, the normalised inhibition (eCFP-eYFP dual reporter) in the series with P2RX3 was 87.3%.

Turning to “sense rCrArUrCrArUrCrCrCrCrArCrCrArUrCrArUrCdTdT / antisense rGrArUrGrArUrGrGrUrGrGrGrGrArUrGrArUrGdTdT”, in the series with P2RX3, the normalised inhibition (eCFP-eYFP dual reporter) came out at 38.5%.

In the series with P2RX3, “sense rArGrGrArGrArArArUrArCrCrGrCrUrGrUrGrUdTdT / antisense rArCrArCrArGrCrGrGrUrArUrUrUrCrUrCrCrUdCdA” displayed a normalised inhibition (eCFP-eYFP dual reporter) of 71.8%.

“sense rArCrCrArGrUrArCrArArArGrCrCrArArGrArAdTdT / antisense rUrUrCrUrUrGrGrCrUrUrUrGrUrArCrUrGrGrUdCdG”: in the series with P2RX3, the normalised inhibition (eCFP-eYFP dual reporter) came to 82.9%.

In the series with P2RX3, “sense rUrArGrGrGrUrGrGrGrUrUrUrUrCrUrUrGrCrAdTdT / antisense rUrGrCrArArGrArArArArCrCrCrArCrCrCrUrAdCdA” showed a normalised inhibition (eCFP-eYFP dual reporter) of 82.2%.

In the series with P2RX3, “sense rGrArGrGrArGrArArArUrArCrCrGrCrUrGrUrGdTdT / antisense rCrArCrArGrCrGrGrUrArUrUrUrCrUrCrCrUrCdAdC” had a normalised inhibition (eCFP-eYFP dual reporter) of 67.4%.

For “sense rGrArCrUrUrGrGrArCrArArGrGrCrCrUrGrGrGdTdT / antisense rCrCrCrArGrGrCrCrUrUrGrUrCrCrArArGrUrCdGdC”, in the series with P2RX3, the normalised inhibition (eCFP-eYFP dual reporter) was 93%.

On to “sense rUrUrCrCrUrArCrGrArGrCrUrUrCrUrUrArArGdTdT / antisense rCrUrUrArArGrArArGrCrUrCrGrUrArGrGrArAdTdG”, for which the normalised inhibition (eCFP-eYFP dual reporter) in the series with DENND5A was determined as 59.8%.

“sense rArUrGrGrCrUrGrGrUrGrGrArGrUrArUrGrUrGdTdT / antisense rCrArCrArUrArCrUrCrCrArCrCrArGrCrCrArUdTdT” gave a normalised inhibition (eCFP-eYFP dual reporter) with DENND5A of 71.9%.

On to “sense rCrArCrCrUrArCrUrCrUrCrCrGrUrArCrArUrCdTdT / antisense rGrArUrGrUrArCrGrGrArGrArGrUrArGrGrUrGdTdC”, for which the normalised inhibition (eCFP-eYFP dual reporter) with DENND5A was 54.7%.

In the case of “sense rCrCrArGrArGrGrGrArGrArArGrUrArCrArUrCdTdT / antisense rGrArUrGrUrArCrUrUrCrUrCrCrCrUrCrUrGrGdTdC”, the normalised inhibition (eCFP-eYFP dual reporter) with DENND5A is 34.5%.

On to “sense rArGrArGrGrArArUrGrGrGrArArCrArUrUrGrCdTdT / antisense rGrCrArArUrGrUrUrCrCrCrArUrUrCrCrUrCrUdTdG”, for which the normalised inhibition (eCFP-eYFP dual reporter) with DENND5A came out at 53.6%.

The substance “sense rCrUrGrUrCrUrUrUrCrArArUrGrCrCrGrUrCrGdTdT / antisense rCrGrArCrGrGrCrArUrUrGrArArArGrArCrArGdGdA” showed a normalised inhibition (eCFP-eYFP dual reporter) with DENND5A of 47.4%.

As to “sense rUrCrArCrUrGrCrCrArArCrCrCrArUrGrGrArUdTdT / antisense rArUrCrCrArUrGrGrGrUrUrGrGrCrArGrUrGrAdAdC”, in the series with DENND5A, the normalised inhibition (eCFP-eYFP dual reporter) turned out to be 57.8%.

“sense rGrGrCrUrGrGrCrArUrUrCrArArGrArCrCrCrAdTdT / antisense rUrGrGrGrUrCrUrUrGrArArUrGrCrCrArGrCrCdCdT”: the normalised inhibition (eCFP-eYFP dual reporter) with DENND5A was found to be 75.8%.

Substance “sense rUrGrCrArGrGrArGrUrUrCrArArCrArUrCrArCdTdT / antisense rGrUrGrArUrGrUrUrGrArArCrUrCrCrUrGrCrAdAdT” gave a normalised inhibition (eCFP-eYFP dual reporter) with DENND5A of 62.5%.

Regarding “sense rCrArArGrArUrCrArGrGrCrUrGrUrUrGrArArUdTdT / antisense rArUrUrCrArArCrArGrCrCrUrGrArUrCrUrUrGdTdC”, the normalised inhibition (eCFP-eYFP dual reporter) with DENND5A is 55.7%.

With “sense rArGrArArGrArArCrUrCrArGrGrArUrUrUrArCdTdT / antisense rGrUrArArArUrCrCrUrGrArGrUrUrCrUrUrCrUdTdC”, the normalised inhibition (eCFP-eYFP dual reporter) with DENND5A was 44.7%.

“sense rArCrUrGrGrGrGrUrGrArGrCrCrUrGrGrArArAdTdT / antisense rUrUrUrCrCrArGrGrCrUrCrArCrCrCrCrArGrUdTdC”: the normalised inhibition (eCFP-eYFP dual reporter) with DENND5A amounted to 37.1%.

In the series with DENND5A, “sense rGrGrGrCrArUrGrGrArUrGrArUrGrGrArArGrCdTdT / antisense rGrCrUrUrCrCrArUrCrArUrCrCrArUrGrCrCrCdTdT” gave a normalised inhibition (eCFP-eYFP dual reporter) of 54.4%.

In the case of “sense rGrGrGrArGrCrCrArGrArGrArUrCrArCrCrUrCdTdT / antisense rGrArGrGrUrGrArUrCrUrCrUrGrGrCrUrCrCrCdAdA”, the normalised inhibition (eCFP-eYFP dual reporter) in the series with DENND5A worked out at 49.7%.

Consider “sense rArUrCrCrGrCrCrArGrCrCrCrArArArCrUrGrUdTdT / antisense rArCrArGrUrUrUrGrGrGrCrUrGrGrCrGrGrArUdAdG”, for which the normalised inhibition (eCFP-eYFP dual reporter) with DENND5A came to 40.9%.

On to “sense rCrArGrUrUrCrCrCrCrArArCrArArArUrUrGrGdTdT / antisense rCrCrArArUrUrUrGrUrUrGrGrGrGrArArCrUrGdTdG”, for which the normalised inhibition (eCFP-eYFP dual reporter) with DENND5A turned out to be 67.9%.

“sense rCrCrArGrCrUrCrArCrUrCrArUrGrCrCrUrCrCdTdT / antisense rGrGrArGrGrCrArUrGrArGrUrGrArGrCrUrGrGdCdA” yielded a normalised inhibition (eCFP-eYFP dual reporter) with DENND5A of 64.4%.

“sense rCrArGrGrGrArGrCrArArArUrGrCrArArArArCdTdT / antisense rGrUrUrUrUrGrCrArUrUrUrGrCrUrCrCrCrUrGdTdT” displayed a normalised inhibition (eCFP-eYFP dual reporter) with DENND5A of 67.9%.

Take “sense rArArCrArGrGrGrArGrCrArArArUrGrCrArArAdTdT / antisense rUrUrUrGrCrArUrUrUrGrCrUrCrCrCrUrGrUrUdGdG”: the normalised inhibition (eCFP-eYFP dual reporter) with DENND5A was determined as 49.2%.

Take “sense rUrCrUrCrCrUrGrCrArUrUrUrCrUrUrArGrArUdTdT / antisense rArUrCrUrArArGrArArArUrGrCrArGrGrArGrAdGdA”: the normalised inhibition (eCFP-eYFP dual reporter) in the series with DENND5A worked out at 51.3%.

Substance “sense rCrUrCrCrUrGrUrGrArCrCrArArArCrUrGrCrAdTdT / antisense rUrGrCrArGrUrUrUrGrGrUrCrArCrArGrGrArGdTdG” gave a normalised inhibition (eCFP-eYFP dual reporter) with DENND5A of 80.5%.
